{
  "source": "patent US20260284095A1",
  "about": "(Mayo Foundation for Medical Education and Research, priority 2023, published 2026)",
  "key": {"DDR2": {"system": "DDR2", "experiment": "ASO screen in H4 neuroglioma cells, DDR2 knock-down", "type": "cell-based", "settings": "ASO 10 nM and 100 nM in the screen", "description": "(§1) Expression levels of DDR2, KANK2, and STOM were confirmed to have similar expression levels in the H4 neuroglioma cells (ATCC cat #HTB-148) and PSP brain homogenate (FIG. 27), and then ASOs described in Example 3 were screened for various characteristics in H4 cells. cDNA reverse transcription kits High-Capacity cDNA Reverse Transcription Kit (High-cap, Thermo Fisher Scientific, cat #4368814) and SuperScript™ IV VILO™ (VILO, Thermo Fisher Scientific, cat #11756050) were assessed. Both cDNA synthesis kits tested quantitatively reverse transcribed RNA into cDNA (FIG. 28). qPCR master mixes TaqMan™ Fast Advanced (Fast Advance, Thermo Fisher Scientific, cat #4444556) and TaqMan™ Universal PCR Master Mix (Universal, Thermo Fisher Scientific, cat #4364340) were assessed. Both qPCR master mixes quantitatively amplified cDNA and generated detectable signals (FIG. 29). Multiplexed qPCR assays were also performed. Duplexed gene quantification yielded similar results as singleton qPCR setups (FIG. 30). ASOs targeting PPIB were used as a positive control to confirm delivery of the ASOs to H4 cells and establish ASO screening parameters (FIG. 31).\n(§2) ASOs described in Example 3 were screened in the H4 neuroglioma cells. Different concentrations of ASOs (10 nM and 100 nM) were administered and knock-down efficiency (measured by fold change of mRNA compared to non-targeting ASO treated controls) and ASO toxicity (measured by LDH assay) were determined (FIGS. 32A-32F).\n(§3) Three ASO hits were selected for each target (DDR2: D4, D5, D9; KANK2: K4, K5, K10; STOM: S1, S4, S10). The knock-down efficiency (mRNA change) and ASO safety (cell toxicity as measured by LDH assay and viability as measured by XTT assay) were repeated/performed to validate the hits, as shown in FIG. 33A-33C.\n(§4) Knock-down was assessed by measuring polypeptide levels (FIGS. 35, 40, 41) using western Blot."}, "DDR2 mRNA [1]": {"system": "DDR2 mRNA", "experiment": "ASO D5 target engagement in iPSC-derived astrocytes", "type": "cell-based", "description": "(§5) Induced pluripotent stem cells (iPSCs) were examined as a model to assess target engagement of the ASO D5 (targeting DDR2). […] ASO D5 was administered to iPSCs-derived astrocytes and neurons separately following the schematic depicted in FIGS. 38-39."}, "DDR2 mRNA [2]": {"system": "DDR2 mRNA", "experiment": "ASO D5 target engagement in iPSC-derived neurons", "type": "cell-based", "description": "as §5"}, "STOM": {"system": "STOM", "experiment": "ASO screen in H4 neuroglioma cells, STOM knock-down", "type": "cell-based", "settings": "ASO 10 nM and 100 nM in the screen", "description": "as §1, §2, §3, §4"}, "[3]": {"system": "GMR>Tau Drosophila (tau-mediated eye degeneration)", "experiment": "Dasatinib in Drosophila tau eye degeneration model", "type": "in vivo, Drosophila melanogaster", "settings": "fly food with dasatinib 1 μM or 10 μM vs DMSO 0.5%; flies aged 5 days; blinded eye score"}, "KANK2": {"system": "KANK2", "experiment": "ASO screen in H4 neuroglioma cells, KANK2 knock-down", "type": "cell-based", "settings": "ASO 10 nM and 100 nM in the screen", "description": "as §1, §2, §3, §4"}},
  "data": [
    {"compound": "D5: ASO targeting DDR2, CACTCTTGCAGCAGACATTC, 2'-MOE wings, phosphorothioate bonds (all phosphorothioate, sugars by position and methylation of C not given here; 2'-MOE wings)", "values": [
      {"measurement": "knock-down efficiency of DDR2 (fold change of mRNA compared to non-targeting ASO; polypeptide by western blot)", "setting": "DDR2", "result": "hits"},
      {"measurement": "DDR2 mRNA", "setting": "DDR2 mRNA [1]", "result": "reduced DDR2 mRNA"},
      {"measurement": "DDR2 mRNA", "setting": "DDR2 mRNA [2]", "result": "reduced DDR2 mRNA"}
    ]},
    {"compound": "S1: ASO targeting STOM, GGACTACGAATTCACAAGGC, 2'-MOE wings, phosphorothioate bonds (all phosphorothioate, sugars by position and methylation of C not given here; 2'-MOE wings)", "values": [
      {"measurement": "knock-down efficiency of STOM (fold change of mRNA compared to non-targeting ASO; polypeptide by western blot)", "setting": "STOM", "result": "hits"}
    ]},
    {"compound": "S4: ASO targeting STOM, GCAATGGTGGTCAGTGTCTG, 2'-MOE wings, phosphorothioate bonds (all phosphorothioate, sugars by position and methylation of C not given here; 2'-MOE wings)", "values": [
      {"measurement": "knock-down efficiency of STOM (fold change of mRNA compared to non-targeting ASO; polypeptide by western blot)", "setting": "STOM", "result": "hits"}
    ]},
    {"compound": "Cc1nc(Nc2ncc(C(=O)Nc3c(C)cccc3Cl)s2)cc(N2CCN(CCO)CC2)n1", "note": "[dasatinib]", "values": [
      {"measurement": "tau-mediated eye degeneration", "setting": "[3]", "result": "dosage-dependent reduction"}
    ]},
    {"compound": "D9: ASO targeting DDR2, CTGCTCATTCCAAAGTCAGC, 2'-MOE wings, phosphorothioate bonds (all phosphorothioate, sugars by position and methylation of C not given here; 2'-MOE wings)", "values": [
      {"measurement": "knock-down efficiency of DDR2 (fold change of mRNA compared to non-targeting ASO; polypeptide by western blot)", "setting": "DDR2", "result": "hits"}
    ]},
    {"compound": "K10: ASO targeting KANK2, CGTCCTGTCTTGCTTTGTCT, 2'-MOE wings, phosphorothioate bonds (all phosphorothioate, sugars by position and methylation of C not given here; 2'-MOE wings)", "values": [
      {"measurement": "knock-down efficiency of KANK2 (fold change of mRNA compared to non-targeting ASO; polypeptide by western blot)", "setting": "KANK2", "result": "hits"}
    ]},
    {"compound": "S10: ASO targeting STOM, ACACGCTCCACCTTTATTCC, 2'-MOE wings, phosphorothioate bonds (all phosphorothioate, sugars by position and methylation of C not given here; 2'-MOE wings)", "values": [
      {"measurement": "knock-down efficiency of STOM (fold change of mRNA compared to non-targeting ASO; polypeptide by western blot)", "setting": "STOM", "result": "hits"}
    ]},
    {"compound": "D4: ASO targeting DDR2, ACAGAGTCAGGACAAATGGC, 2'-MOE wings, phosphorothioate bonds (all phosphorothioate, sugars by position and methylation of C not given here; 2'-MOE wings)", "values": [
      {"measurement": "knock-down efficiency of DDR2 (fold change of mRNA compared to non-targeting ASO; polypeptide by western blot)", "setting": "DDR2", "result": "hits"}
    ]},
    {"compound": "K5: ASO targeting KANK2, CCCTCAGACACCCACAATTA, 2'-MOE wings, phosphorothioate bonds (all phosphorothioate, sugars by position and methylation of C not given here; 2'-MOE wings)", "values": [
      {"measurement": "knock-down efficiency of KANK2 (fold change of mRNA compared to non-targeting ASO; polypeptide by western blot)", "setting": "KANK2", "result": "hits"}
    ]},
    {"compound": "K4: ASO targeting KANK2, GCAAGCCAGTCTACATCAAG, 2'-MOE wings, phosphorothioate bonds (all phosphorothioate, sugars by position and methylation of C not given here; 2'-MOE wings)", "values": [
      {"measurement": "knock-down efficiency of KANK2 (fold change of mRNA compared to non-targeting ASO; polypeptide by western blot)", "setting": "KANK2", "result": "hits"}
    ]}
  ]
}
